Measured values reported in US20240270793A1, “COMPOSITIONS” (UNIVERSITY OF SOUTHAMPTON, priority 2020, published 2024).
Square brackets hold non-standard residues; d marks the D form. Peptide text beside a SMILES is read from it. Phe(4-I) = N[C@@H](Cc1ccc(I)cc1)C(=O)O

Assays:
[1] = biological target: T1, HIF-1α PAS-B (238-349) (Homo sapiens, UniProt Q16665); test: MST binding to recombinantly expressed HIF-1α PAS-B domain; conditions: HIF-1α PAS-B, parent CRLIIF
T1 construct: human HIF-1α PAS-B (238-349); His tag; made in house; host or cells: E. coli BL21(DE3)-Rosetta, pET28a
T1 sequence (Q16665 238-349): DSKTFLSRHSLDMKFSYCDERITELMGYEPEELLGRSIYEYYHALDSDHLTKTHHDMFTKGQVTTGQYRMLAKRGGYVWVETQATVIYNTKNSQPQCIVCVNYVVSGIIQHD
Procedure: (§1) Genes encoding for human HIF-1α PAS-B (238-349) and HIF-2α PAS-B (240-350) were each cloned into pET28a vectors at the BamHI and SacI restriction sites. The recombinant plasmids were next transformed into BL21(DE3)-Rosetta chemically competent cells. Cells were grown in LB media at 37° C. to an OD600 of 0.7, after which expression was induced by addition of 0.5 mM IPTG. Following overnight expression at 16° C., cells were pelleted and resuspended in buffer containing 50 mM Tris, 150 mM NaCl, 5% glycerol, 1 mM TCEP, protease inhibitors (Roche) and 20 mM imidazole, pH 8.0. Cells were lysed by sonication, and the supernatant applied to a 1 mL Histrap FF affinity column. The His-tagged protein of interest was eluted with buffer containing 50 mM Tris, 150 mM NaCl, 5% glycerol, 1 mM TCEP and 250 mM imidazole. The protein was then loaded onto a HiLoad 16/600 superdex 75 pg size exclusion column (GE healthcare) equilibrated with assay buffer containing 50 mM Tris, 150 mM NaCl, 5% glycerol and 1 mM TCEP, pH 8.0. Fractions containing the desired protein were flash-frozen and stored at −80° C. prior to use.
HIF-α proteins were labelled with Monolith NT-647 labelling dye (Nanotemper Technologies GmbH) according to the manufacturer's instructions. MST experiments were performed on a Monolith NT.115 system (Nanotemper Technologies GmbH), in assay buffer containing 50 nM labelled protein, 10% DMSO and 0.05% TWEEN-20. MST measurements were performed using 50% LED and 50% MST power.

[2] = biological target: T2, HIF-1a (Homo sapiens, UniProt Q16665); test: CETSA in MCF-7 cells; assay type: cell-based; conditions: observed at 51° C. and 54° C.
T2 construct: endogenous in cells; host or cells: MCF-7
T2 sequence (Q16665 whole entry): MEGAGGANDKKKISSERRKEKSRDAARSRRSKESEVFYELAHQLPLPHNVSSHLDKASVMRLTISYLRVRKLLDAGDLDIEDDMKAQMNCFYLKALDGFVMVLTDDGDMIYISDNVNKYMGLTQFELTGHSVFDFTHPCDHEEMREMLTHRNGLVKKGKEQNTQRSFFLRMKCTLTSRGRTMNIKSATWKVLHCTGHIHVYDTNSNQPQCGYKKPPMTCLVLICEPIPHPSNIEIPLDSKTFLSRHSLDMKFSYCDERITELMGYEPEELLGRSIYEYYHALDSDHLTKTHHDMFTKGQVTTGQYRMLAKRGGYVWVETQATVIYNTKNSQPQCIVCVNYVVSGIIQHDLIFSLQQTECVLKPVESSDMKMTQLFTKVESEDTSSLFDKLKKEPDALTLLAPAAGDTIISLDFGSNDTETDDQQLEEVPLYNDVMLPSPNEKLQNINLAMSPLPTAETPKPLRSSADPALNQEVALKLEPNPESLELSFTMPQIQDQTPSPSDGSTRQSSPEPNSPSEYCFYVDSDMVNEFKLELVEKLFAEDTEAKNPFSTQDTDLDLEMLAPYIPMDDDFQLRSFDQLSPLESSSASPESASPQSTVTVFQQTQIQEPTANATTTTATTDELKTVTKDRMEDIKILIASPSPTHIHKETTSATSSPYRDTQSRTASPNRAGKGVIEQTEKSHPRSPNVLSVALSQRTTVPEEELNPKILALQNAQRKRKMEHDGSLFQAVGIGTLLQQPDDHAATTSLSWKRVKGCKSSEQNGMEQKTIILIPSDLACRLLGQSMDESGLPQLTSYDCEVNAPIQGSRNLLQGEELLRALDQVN
Procedure: The binding of 4-iodo derivative to HIF-1a was assessed by CETSA in MCF-7 cells. Stabilisation of HIF-1a by this compound can be observed at 51° C. and 54° C.
The binding of 4-iodo derivative to HIF-1a was assessed by CETSA in MCF-7 cells. Stabilisation of HIF-1a by this compound can be observed at 51° C. and 54° C. (FIG. 7).

[3] = solubility (qualitative); assay type: physicochemical
[4] = biological target: T3, HIF-2α PAS-B (240-350) (Homo sapiens, UniProt Q99814); test: MST binding to recombinantly expressed HIF-2α PAS-B domain; conditions: HIF-2α PAS-B vs HIF-1α PAS-B
T3 construct: HIF-2α PAS-B (240-350); His tag; made in house; host or cells: E. coli BL21(DE3)-Rosetta, pET28a
T3 sequence (Q99814 240-350): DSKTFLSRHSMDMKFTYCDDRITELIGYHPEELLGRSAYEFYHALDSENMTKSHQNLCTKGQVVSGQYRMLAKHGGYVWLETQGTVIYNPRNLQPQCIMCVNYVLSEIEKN
Procedure: The three lead peptides were next chemically synthesised, using Fmoc-solid phase peptide synthesis methodology, followed by in-solution cyclisation under high dilution conditions.
as §1, with “use. […]” for “use.”

[5] = test system: HRE-controlled YFP expression in T-REx-293 cell line; test: YFP reporter assay (YFP under control of three HRE copies) in hypoxia; assay type: cell-based; conditions: YFP-reporter HEK cell line, various doses
Procedure: The effect of the cyclic peptides on cellular systems was assessed. A cell-based assay was developed in which the expression of yellow fluorescent protein (YFP) was put under the control of the HRE. A cassette was designed containing the YFP gene preceded by three copies of the HRE sequence. This cassette in turn was stably integrated into the chromosome of T-REX-293 cell line as described previously. […] In these cells, hypoxia results in increased expression of YFP (directly by HIF), so a HIF inhibitor would be expected to reduce the fluorescence of these cells when incubated in hypoxia.
Following in vitro characterisation and optimisation of binding, the effect of the cyclic peptides on cellular systems was assessed. A cell-based assay was developed in which the expression of yellow fluorescent protein (YFP) was put under the control of the HRE. A cassette was designed containing the YFP gene preceded by three copies of the HRE sequence. This cassette in turn was stably integrated into the chromosome of T-REx-293 cell line as described previously.^12
In these cells, hypoxia results in increased expression of YFP (directly by HIF), so a HIF inhibitor would be expected to reduce the fluorescence of these cells when incubated in hypoxia.

[6] = test system: cells; test: commercial cell-viability assay; assay type: cell-based; conditions: at up to twice the tested doses
Procedure: The 4-iodo derivative was tested in a commercial cell-viability assay, and was not toxic to cells at up to twice the tested doses.
The 4-iodo derivative was tested in a commercial cell-viability assay, and was not toxic to cells at up to twice the tested doses (FIG. 6).

- improvement in affinity relative to the parent compound [1]: 4.5 fold
- Stabilisation of HIF-1a by CETSA [2]: Stabilisation
- water solubility compared with the 4-benzyl compound [3]: better water solubility
- loss in Kd compared to the 1α isoform [4]: 2.2 fold
SMILES: CC[C@H](C)[C@@H]1NC(=O)[C@H](CC(C)C)NC(=O)[C@H](CCCNC(=N)N)NC(=O)[C@H](CS)NC(=O)[C@H](Cc2ccc(I)cc2)NC(=O)[C@H]([C@@H](C)CC)NC1=O [Cyclic peptide #18, cyclo-cys agr leuileile (4-I)phe] (cyclo(CRLII[Phe(4-I)]))
- IC50 [5]: ~35 µM
- toxicity to cells in cell-viability assay [6]: not toxic
